Results from PubChem BioAssay (NCI).
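Where inhibition never reached the appropriate level, the endpoint shown equals the highest concentration tested. Otherwise, values were interpolated linearly from a five-concentration, 48-hour dose response in 96-well plates. TGI: total growth inhibition.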

How the values were obtained:
Test in all cases: inhibition of tumour cell growth, NCI panel, 48 h
ACHN renal = system: ACHN renal
RXF 393 renal = system: RXF 393 renal
SR leukemia = system: SR leukemia
T-47D breast = system: T-47D breast
HT29 colon = system: HT29 colon
SF-539 CNS = system: SF-539 CNS
OVCAR-3 ovarian = system: OVCAR-3 ovarian
SK-MEL-2 melanoma = system: SK-MEL-2 melanoma
K-562 leukemia = system: K-562 leukemia
MDA-N = system: MDA-N

SMILES	TGI (ACHN renal) [µM]	TGI (RXF 393 renal) [µM]	TGI (SR leukemia) [µM]	TGI (T-47D breast) [µM]	TGI (HT29 colon) [µM]	TGI (SF-539 CNS) [µM]	TGI (OVCAR-3 ovarian) [µM]	TGI (SK-MEL-2 melanoma) [µM]	TGI (K-562 leukemia) [µM]	TGI (MDA-N) [µM]
COc1cccc(CC(C)NCC(O)c2ccc(O)c(O)c2)c1 (stereo not given)	> 100	> 100	67.4	> 100	> 100	> 100	> 100	> 100	> 100	
Cc1ccc(C2=NOC(=O)[C@@H]3CCCC[C@@H]23)cc1	> 100	> 100	> 100	> 100	> 100	> 100	> 100		> 100	> 100
CCOC(=O)C(=[N+]=[N-])C(=O)Nc1nn2nnnc2c2ccccc12	> 100	> 100	> 100		> 100	> 100	> 100	> 100	> 100	> 100
O=[N+]([O-])c1ccc2nc(-c3ccccn3)c(-c3ccccn3)nc2c1	> 100	> 100	> 100	> 100	> 100	> 100	> 100	> 100		> 100
O=C1NC(=O)/C(=C/c2ccc(S(=O)(=O)N/N=C/c3ccc(Cl)cc3)cc2)N1	> 100	> 100	> 100	> 100	> 100		> 100	> 100	> 100	> 100
Nc1cccc2c1C(=O)c1cccc(N)c1C2=O	> 100	> 100			> 100	> 100	> 100	> 100	> 100	
CC1(C)OCC(C(O)C2OC(C)(C)OC2C=O)O1 (stereo not given)	> 100		> 100		> 100		> 100	> 100	> 100	> 100
O=[N+]([O-])c1ccc(S[C@@H]2[C@H]3c4c(-c5ccccc5)[nH]c(-c5ccccc5)c4[C@@H]2C[C@H]3Cl)cc1	> 100	4.3	> 100	8.67	> 100	> 100	35.8	70.9		18.6
COC1OC(Cc2nnc(C)o2)C(OCc2ccccc2)C(OCc2ccccc2)C1OCc1ccccc1 (stereo not given)	76.8	48.2	29.6	> 100	63.3	> 100	60.6	29.2	98.5	
Cn1nc2n(c1=O)CCCN2	> 100	> 100	> 100		> 100	> 100	> 100		> 100	> 100
CC(=O)/C(=C/n1c(=S)[nH]c2ccccc21)C(=O)Nc1ccccc1C	> 100	> 100		> 100	> 100	> 100	> 100	> 100		> 100
C/C(=C\c1ccccn1)c1ccccn1	> 100	> 100			> 100		> 100	> 100	> 100	> 100
